Reference: patent US20050197350A1, “Novel quinoline, tetrahydroquinazoline, and pyrimidine derivatives and methods of treatment related to the use thereof” (TAISHO PHARMACEUTICAL CO., LTD., priority 2003, published 2005)
Read-outs that look alike come from different tables or passages of the source.

Tested on: MCH receptors
Assay: MCH receptor activity class (method not given)
[1] = MCH receptor, class by percent of control at 10^-7 M or IC50
[2] = class by percent of control at 10^−7 M or IC50
[3] = class 1-3 by percent of control at 10^-7 M or IC50
[4] = class by percent of control at 10^-7 M or IC50
[5] = activity class 1-3: percent of control at 10^-7 M or IC50
[6] = activity class per percent of control at 10^-7 M or IC50

**Q.** For `COc1cccc(CNC(=S)N[C@H]2CC[C@@H](Nc3nc4c(c(N(C)C)n3)CCCC4)CC2)c1` [compound 2044], which class [1] is on record?
**A.** 3 (Class 3 The value of percent of control at 10^−7 M was more than 60% or the value of IC50 was more than 200 nM.)

**Q.** How did the class [2] turn out when `Cc1cc(N(C)C)nc(NC[C@H]2CC[C@@H](NC(=O)c3ccc(C(F)(F)F)cc3)CC2)n1` [compound 2740] was run?
**A.** 3 (Class 3 The value of percent of control at 10^−7 M was more than 60% or the value of IC50 was more than 200 nM.)

**Q.** Which class [3] does the source give for `CN(C)c1nc(N[C@H]2CC[C@@H](NC(=O)c3ccc(C#N)cc3)CC2)nc2c1CCCC2` [compound 513] here?
**A.** 3 (Class 3 The value of percent of control at 10^−7 M was more than 60% or the value of IC50 was more than 200 nM.)

**Q.** For `Cc1cccc(C(=O)N[C@H]2CC[C@@H](Nc3cc(C)c4ccccc4n3)CC2)c1` [Example 2543, 3-methyl-N-{cis-4-[(4-methylquinolin-2-yl)amino]cyclohexyl}benzamide], which class is on record?
**A.** 1

**Q.** `COc1ccc(OC)c(CC(=O)NC[C@H]2CC[C@@H](Nc3nc4c(c(N(C)C)n3)CCCC4)CC2)c1` [compound 597] was tested. Which class [3] did it give?
**A.** 3 (Class 3 The value of percent of control at 10^−7 M was more than 60% or the value of IC50 was more than 200 nM.)

**Q.** With `CN(C)c1cc(N[C@H]2CC[C@@H](NC(=O)c3ccccc3Sc3ccccc3C#N)CC2)nc2ccccc12` [compound 735] as the molecule, how does the class [4] read?
**A.** 3 (Class 3 The value of percent of control at 10^−7 M was more than 60% or the value of IC50 was more than 200 nM.)

**Q.** Which class [1] does the source give for `CN(C)c1cc(N[C@H]2CC[C@@H](NC(=O)c3cnc4ccccc4n3)CC2)nc2ccccc12` [compound 114, N-(cis-4-{[4-(dimethylamino)quinolin-2-yl]amino}cyclohexyl)quinoxaline-2-carboxamide] here?
**A.** 2 (Class 2: The value of percent of control at 10^−7 M was from 40% to 60% or the value of IC′50 was from 50 nM to 200 nM.)

**Q.** How did the class [4] turn out when `COc1ccc(NC(=O)N[C@H]2CC[C@@H](Nc3nccc(N(C)C)n3)CC2)cc1OC1CCCC1` [compound 2253] was run?
**A.** 2 (Class 2: The value of percent of control at 10^−7 M was from 40% to 60% or the value of IC′50 was from 50 nM to 200 nM.)

**Q.** With `Cc1sc(-c2ccccc2)nc1CC(=O)N[C@H]1CC[C@@H](Nc2cc(N(C)C)c3ccccc3n2)CC1` [compound 712] as the molecule, how does the class [4] read?
**A.** 3 (Class 3 The value of percent of control at 10^−7 M was more than 60% or the value of IC50 was more than 200 nM.)

**Q.** Which class [4] does the source give for `CCC(C(=O)NC[C@H]1CC[C@@H](Nc2nccc(N(C)C)n2)CC1)c1ccccc1` (relative stereo) [compound 411, N-[(cis-4-{[4-(dimethylamino)pyrimidin-2-yl]amino}cyclohexyl)methyl]-2-phenylbutanamide] here?
**A.** 1 (Class 1: The value of percent of control at 10^−7 M was less than 40% or the value of IC50 was less than 50 nM.)

**Q.** `CN(C)c1nc(N[C@H]2CC[C@@H](NC(=O)Nc3ccccc3C(C)(C)C)CC2)nc2c1CCCC2` [compound 1684] was tested. Which class [5] did it give?
**A.** 3 (Class 3 The value of percent of control at 10^−7 M was more than 60% or the value of IC50 was more than 200 nM.)

**Q.** How did the class [4] turn out when `CC(=O)c1cccc(NC(=O)N[C@H]2CC[C@@H](Nc3nc4c(c(N(C)C)n3)CCCC4)CC2)c1` [compound 1806] was run?
**A.** 3 (Class 3 The value of percent of control at 10^−7 M was more than 60% or the value of IC50 was more than 200 nM.)

**Q.** How did the class [5] turn out when `CCCCCCCCOC(=O)NC[C@H]1CC[C@@H](Nc2nc3c(c(N(C)C)n2)CCCC3)CC1` [compound 1606] was run?
**A.** 3 (Class 3 The value of percent of control at 10^−7 M was more than 60% or the value of IC50 was more than 200 nM.)

**Q.** For `CN(C)c1cc(N[C@H]2CC[C@@H](NC(=O)COc3ccccc3)CC2)nc2ccccc12` [compound 112, N-(cis-4-{[4-(dimethylamino)quinolin-2-yl]amino}cyclohexyl)-2-phenoxyacetamide], which class [1] is on record?
**A.** 1 (Class 1: The value of percent of control at 10^−7 M was less than 40% or the value of IC50 was less than 50 nM.)

**Q.** How did the class [1] turn out when `CN(C)c1cc(N[C@H]2CC[C@@H](NC(=O)c3ccc(C#N)cc3)CC2)nc2ccccc12` [compound 77] was run?
**A.** 3 (Class 3 The value of percent of control at 10^−7 M was more than 60% or the value of IC50 was more than 200 nM.)

**Q.** `CC1=C(CC(=O)N[C@H]2CC[C@@H](Nc3cc(N(C)C)c4ccccc4n3)CC2)c2cc(F)ccc2/C1=C/c1ccc([S+](C)[O-])cc1` (relative stereo) [compound 743] was tested. Which class [4] did it give?
**A.** 3 (Class 3 The value of percent of control at 10^−7 M was more than 60% or the value of IC50 was more than 200 nM.)

**Q.** For `CN(C)c1nc(N[C@H]2CC[C@@H](CNC(=O)c3cccc(Cl)c3)CC2)nc2c1CCCC2` [compound 586], which class [3] is on record?
**A.** 3 (Class 3 The value of percent of control at 10^−7 M was more than 60% or the value of IC50 was more than 200 nM.)

**Q.** Which class [4] does the source give for `COc1cc(Br)cc(CN[C@H]2CC[C@@H](Nc3nccc(N(C)C)n3)CC2)c1O` [compound 1212] here?
**A.** 3 (Class 3 The value of percent of control at 10^−7 M was more than 60% or the value of IC50 was more than 200 nM.)

**Q.** `Cc1cccc(CNC(=O)N[C@H]2CC[C@@H](Nc3nc4c(c(N(C)C)n3)CCCC4)CC2)c1` [compound 1836] was tested. Which class [4] did it give?
**A.** 3 (Class 3 The value of percent of control at 10^−7 M was more than 60% or the value of IC50 was more than 200 nM.)

**Q.** With `CC(NC(=O)N[C@H]1CC[C@@H](Nc2nccc(N(C)C)n2)CC1)c1ccccc1` (relative stereo) [compound 2226] as the molecule, how does the class [4] read?
**A.** 3 (Class 3 The value of percent of control at 10^−7 M was more than 60% or the value of IC50 was more than 200 nM.)

**Q.** With `CN(C)c1nc(N[C@H]2CC[C@@H](NC(=O)c3ccccc3-c3ccccc3)CC2)nc2c1CCCC2` [compound 1031] as the molecule, how does the class [6] read?
**A.** 3 (Class 3 The value of percent of control at 10^−7 M was more than 60% or the value of IC50 was more than 200 nM.)

**Q.** `CN(C)c1nc(N[C@H]2CC[C@@H](NC(=O)Cc3c(Cl)ccc(Cl)c3Cl)CC2)nc2c1CCCC2` [compound 950] was tested. Which class [4] did it give?
**A.** 2 (Class 2: The value of percent of control at 10^−7 M was from 40% to 60% or the value of IC′50 was from 50 nM to 200 nM.)

**Q.** How did the class [4] turn out when `CN(C)c1ccnc(N[C@H]2CC[C@@H](CNC(=O)Cc3cccs3)CC2)n1` [compound 398] was run?
**A.** 3 (Class 3 The value of percent of control at 10^−7 M was more than 60% or the value of IC50 was more than 200 nM.)

**Q.** With `CN(C)c1nc(N[C@H]2CC[C@@H](NC(=O)Nc3ccc(Cl)c(C(F)(F)F)c3)CC2)nc2c1CCCC2` [compound 1887, N-4[4-chloro-3-(trifluoromethyl)phenyl]-N′-(cis-4-{[4-(dimethylamino)-5,6,7,8-tetrahydroquinazolin-2-yl]amino}cyclohexyl)urea] as the molecule, how does the class [4] read?
**A.** 3 (Class 3 The value of percent of control at 10^−7 M was more than 60% or the value of IC50 was more than 200 nM.)

**Q.** For `Cc1ccc(C(=O)N[C@H]2CC[C@@H](Nc3cc(N(C)C)c4ccccc4n3)CC2)c(F)c1F` [compound 60], which class [1] is on record?
**A.** 3 (Class 3 The value of percent of control at 10^−7 M was more than 60% or the value of IC50 was more than 200 nM.)

**Q.** For `CN(C)c1nc(N[C@H]2CC[C@@H](NC(=O)Nc3ccc(Cc4ccccc4)cc3)CC2)nc2c1CCCC2` [compound 1882], which class [4] is on record?
**A.** 3 (Class 3 The value of percent of control at 10^−7 M was more than 60% or the value of IC50 was more than 200 nM.)

**Q.** `CN(C)c1nc(N[C@H]2CC[C@@H](NC(=S)Nc3c(Cl)cccc3Cl)CC2)nc2c1CCCC2` [compound 1938] was tested. Which class [1] did it give?
**A.** 3 (Class 3 The value of percent of control at 10^−7 M was more than 60% or the value of IC50 was more than 200 nM.)

**Q.** How did the class [4] turn out when `CN(C)c1cc(N[C@H]2CC[C@@H](NC(=O)c3ccccc3C(=O)c3cccc4ccccc34)CC2)nc2ccccc12` [compound 749] was run?
**A.** 3 (Class 3 The value of percent of control at 10^−7 M was more than 60% or the value of IC50 was more than 200 nM.)

**Q.** Which class [4] does the source give for `Cc1ccnc(SCC(=O)N[C@H]2CC[C@@H](Nc3nccc(N(C)C)n3)CC2)n1` [compound 835] here?
**A.** 3 (Class 3 The value of percent of control at 10^−7 M was more than 60% or the value of IC50 was more than 200 nM.)

**Q.** Which class (MCH receptor activity class 1-3 (percent of control at 10^-7 M or IC50)) does the source give for `CN(C)c1ccnc(N[C@H]2CC[C@@H](CNC(=O)Nc3ccc(F)c(F)c3)CC2)n1` [compound 2448] here?
**A.** 1 (Class 1: The value of percent of control at 10^−7 M was less than 40% or the value of IC50 was less than 50 nM.)

**Q.** With `CCc1cccc(CC)c1NC(=O)N[C@H]1CC[C@@H](Nc2cc(N(C)C)c3ccccc3n2)CC1` [compound 2102] as the molecule, how does the class [4] read?
**A.** 1 (Class 1: The value of percent of control at 10^−7 M was less than 40% or the value of IC50 was less than 50 nM.)

**Q.** Which class [5] does the source give for `CN(C)c1ccnc(N[C@H]2CC[C@@H](NC(=O)Oc3ccc(Br)cc3)CC2)n1` [compound 1623] here?
**A.** 3 (Class 3 The value of percent of control at 10^−7 M was more than 60% or the value of IC50 was more than 200 nM.)

**Q.** `CN(C)c1nc(N[C@H]2CC[C@@H](NC(=O)Nc3cc(Cl)ccc3[N+](=O)[O-])CC2)nc2c1CCCC2` [compound 1901] was tested. Which class [1] did it give?
**A.** 3 (Class 3 The value of percent of control at 10^−7 M was more than 60% or the value of IC50 was more than 200 nM.)

**Q.** How did the class [2] turn out when `Cc1cnc(N[C@H]2CC[C@@H](C(=O)N[C@H](C)c3ccc([N+](=O)[O-])cc3)CC2)nc1N(C)C` [compound 2780, cis-4-{[4-(dimethylamino)-5-methylpyrimidin-2-yl]amino}-N-[(1R)-1-(4-nitrophenyl)ethyl]cyclohexanecarboxamide] was run?
**A.** 1 (Class 1: The value of percent of control at 10^−7 M was less than 40% or the value of IC50 was less than 50 nM.)

**Q.** For `CC(CN[C@H]1CC[C@@H](Nc2cc(N(C)C)c3ccccc3n2)CC1)c1ccccc1` (stereo partly drawn) [compound 1110, N4,N4-dimethyl-N2-{cis-4-[(2-phenylpropyl)amino]cyclohexy}quinoline-2,4-diamine], which class [6] is on record?
**A.** 3 (Class 3 The value of percent of control at 10^−7 M was more than 60% or the value of IC50 was more than 200 nM.)

**Q.** With `COc1ccc(OC)c(CNC[C@H]2CC[C@@H](Nc3nccc(N(C)C)n3)CC2)c1` [compound 1246] as the molecule, how does the class [4] read?
**A.** 3 (Class 3 The value of percent of control at 10^−7 M was more than 60% or the value of IC50 was more than 200 nM.)

**Q.** `Cc1cnc(N[C@H]2CC[C@@H](C(=O)NC(C)c3ccc(Br)cc3)CC2)nc1N(C)C` (relative stereo) [compound 2779] was tested. Which class [2] did it give?
**A.** 1 (Class 1: The value of percent of control at 10^−7 M was less than 40% or the value of IC50 was less than 50 nM.)
